# In patent publication US5117052A, “Physiologically active substances, benastatins A and B, and production and use thereof” (priority 1990, dated 1992):
# Experiments:
# Aspergillus niger F-16 = assay: Agar dilution assay, minimum growth inhibition concentration; assay type: cell-based; conditions: F16; Aspergillus niger F-16; read-out: Minimum growth-inhibition concentration
# Salmonella typhi T-63 = assay: as above; assay type: cell-based; conditions: Salmonella enterica
# [1] = system: Staphylococcus aureus No. 5 (MRSA); assay: as above; assay type: cell-based; conditions: read-out: Minimum growth-inhibition concentration
# Pyricularia oryzae = assay: microbe, parasite or virus in culture; assay type: cell-based; conditions: read-out: Minimum growth-inhibition concentration
# [2] = system: Saccharomyces cerevisiae F-7; assay: Agar dilution assay, minimum growth inhibition concentration; assay type: cell-based; conditions: F7; Saccharomyces cerevisiae F-7; read-out: Minimum growth-inhibition concentration
# mouse = assay: Toxicity on administration to the abdominal cavity; assay type: in vivo; conditions: 100 mg/kg
# Source text: Benastatins A and B were each administered to the abdominal cavity of a mouse to examine the toxicity thereof.
# Escherichia coli NIHJ = assay: Agar dilution assay, minimum growth inhibition concentration; assay type: cell-based; conditions: Escherichia coli NIHJ; read-out: Minimum growth-inhibition concentration
# [3] = system: spleen cells (Con A lymphocyte blast formation reaction); assay: Suppression of Con A-induced lymphocyte blast formation, [3H]-thymidine uptake (Test 2); assay type: cell-based, BALB/c mouse; conditions: Mus musculus, Con A 5 μg/ml, 72 hours, read-out: IC50, 50% suppression of lymphocyte blast formation (Con A)
# Protocol: (§1) A pharmacological test was made about a suppression activity of benastatins on the lymphocyte blast formation reaction.
# (§2) In this test, use was made of an RPMI 1640 culture medium supplemented with 20% bovin fetus serum, 25 mM Hepes buffer, 100 μg/ml streptomycin and 100 units/ml penicillin G. The cultivation was effected by using microplate (COSTAR) with a flat bottom and with 96 wells. As mitogens, use was made of lipopolysaccharide (LPS) and concanavalin A (Con A) at concentrations of 100 and 5 μg/ml, respectively.
# (§3) After spleen cells were taken out from BALB/c mouse (female, 25 weeks old), a unicellular suspension of the spleen cells was prepared, and then subjected to a hyper shock treatment to remove erythrocytes therefrom.
# (§4) Each well was charged with 0.2 ml of a sample which contained 2×10^5 spleen cells and the test compound at a predetermined concentration. The cultivation was conducted for 72 hours. Before 8 hours from the completion of cultivation, each well was further charged with 37 KBq of [^3 H]-thymidine to determine the amount of the thymidine taken into the cells. […]
# [4] = system: Mycabacterium smegmatis ATCC607; assay: Agar dilution assay, minimum growth inhibition concentration; assay type: cell-based; conditions: Mycabacterium smegmatis ATCC607; read-out: Minimum growth-inhibition concentration
# [5] = system: Shigella dysenteriae JS11910; assay: as above; assay type: cell-based; conditions: JS11910, read-out: Minimum growth-inhibition concentration
# [6] = system: Staphylococcus aureus No. 17 (MRSA); assay: as above; assay type: cell-based; conditions: read-out: Minimum growth-inhibition concentration
# [7] = system: Pseudomanas aeruginosa A3; assay: as above; assay type: cell-based; conditions: Pseudomanas aeruginosa A3; read-out: Minimum growth-inhibition concentration
# [8] = system: Klebsiella pneumoniae PCI602; assay: as above; assay type: cell-based; conditions: Klebsiella pneumoniae PCI602; read-out: Minimum growth-inhibition concentration
# Candida tropicalis F-1 = assay: as above; assay type: cell-based; conditions: F1; Candida tropicalis F-1; read-out: Minimum growth-inhibition concentration
# [9] = system: spleen cells (LPS lymphocyte blast formation reaction); assay: Suppression of LPS-induced lymphocyte blast formation, [3H]-thymidine uptake (Test 2); assay type: cell-based, BALB/c mouse; conditions: Mus musculus, LPS 100 μg/ml, 72 hours, read-out: IC50, 50% suppression of lymphocyte blast formation (LPS)
# Protocol: as §1, §2, §3, §4
# glutathione transferase = molecular target: T1, glutathione transferase (Rattus norvegicus, UniProt P04905); assay: Glutathione transferase inhibition activity (3,4-dichloronitrobenzene/glutathione, absorption at 345 nm); assay type: biochemical
# T1 construct: obtained from a homogenate of rat liver; from tissue; host or cells: rat liver homogenate, partially purified by DEAE-cellulose column and ammonium sulfate salting-out
# Protocol: The glutathione transferase inhibition activity was determined by a modified method based on the known method described in Biochemical and Biophysical Research Communications, 112, 980-985 (1983).
# A test tube was charged with a solution mixture consisting of (a) 0.1 ml of 90 mM glutathione (reduction type), (b) 0.05 ml of 20 mM 3,4-dichloronitrobenzene, (c) 1.7 ml of 0.1M potassium phosphate buffer solution (pH 7.4) and (d) 0.1 ml of an aqueous solution containing the test compound. The solution mixture was heated to 37° C. for 3 minutes, and admixed with 0.05 ml of a glutathione transferase solution to effect a reaction at 37° C. for 30 minutes. The glutathione transferase solution employed was one which had been obtained from a homogenate of rat liver and which had been patially refined by means of a DEAE-cellulose column and of salting out-operation with ammonium sulfate.
# After the completion of the reaction, the sample was measured for the light absorption (a) at 345 nm. At the same time, a control sample which was free of the test compound and which contained only the buffer solution was measured for the light absorption (b) at 345 nm.
# The glutathione transferase inhibition activity was determined according to the formula: […]
# IC50, which is the concentration of a test compound required for 50% inhibition, was recorded.
# [10] = system: Staphylococcus aureus MS9610; assay: Agar dilution assay, minimum growth inhibition concentration; assay type: cell-based
# Protocol: (§5) The minimum of microorganism growth inhibition concentrations of benastatins A and B were determined for various bacteria, east and fungi according to a conventional agar dilution assay method. It will be seen from Table 1 that benastatins A and B have a satisfactory antimicrobial activity, particularly against gram-positive bacteria, etc.
# Cochliobolus miyabeanus = assay: as above; assay type: cell-based; conditions: Bipolaris oryzae
# Protocol: as §5
# [11] = system: Bacillus cereus ATCC10702; assay: as above; assay type: cell-based
# Protocol: as §5
# [12] = system: Bacillus subtilis NRRL B-558; assay: as above; assay type: cell-based; conditions: NRRLB558
# Protocol: as §5
# [13] = system: Cryptococcus neoformans F-10; assay: as above; assay type: cell-based; conditions: F10
# Protocol: as §5
# [14] = system: Corynebacterium bovis 1810; assay: as above; assay type: cell-based
# Protocol: as §5
# Micrococcus luteus FDA16 = assay: as above; assay type: cell-based
# Protocol: as §5
# [15] = system: Staphylococcus aureus Smith; assay: as above; assay type: cell-based
# Protocol: as §5
# Proteus rettgeri GN311 = assay: as above; assay type: cell-based; conditions: Providencia rettgeri; Proteus rettgeri GN311; read-out: Minimum growth-inhibition concentration
# T1 sequence (P04905 2-218 limits assumed): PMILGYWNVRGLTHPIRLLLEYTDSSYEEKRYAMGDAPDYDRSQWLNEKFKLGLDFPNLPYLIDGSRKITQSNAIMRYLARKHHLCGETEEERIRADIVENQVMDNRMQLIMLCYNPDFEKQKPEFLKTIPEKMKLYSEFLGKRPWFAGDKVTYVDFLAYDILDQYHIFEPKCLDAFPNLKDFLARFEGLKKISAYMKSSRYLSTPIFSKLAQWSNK
smiles,measurement,setting,value
"CCCCCc1cc2ccc3c(O)c4c(cc3c2c(O)c1C(=O)O)C(C)(C)c1cc(O)cc(O)c1C4=O [Benastatin A, benastatin A]",MIC,Aspergillus niger F-16,> 50 µg/mL
same,MIC,Salmonella typhi T-63,> 50 µg/mL
same,MIC,[1],3.12 µg/mL
same,MIC,Pyricularia oryzae,50 µg/mL
same,MIC,[2],> 100 µg/mL
same,Toxicity,mouse,No toxicity was observed
same,MIC,Escherichia coli NIHJ,100 µg/mL
same,IC50,[3],7.3 µg/mL
same,MIC,[4],50 µg/mL
same,MIC,[5],> 50 µg/mL
same,MIC,[6],3.12 µg/mL
same,MIC,[7],> 50 µg/mL
same,MIC,[8],> 50 µg/mL
same,MIC,Candida tropicalis F-1,> 50 µg/mL
same,IC50,[9],7.7 µg/mL
same,IC50,glutathione transferase,4.99 µM
same,Solubility in organic solvents,"Solubility; dimethyl sulfoxide, methanol, acetone, ethyl acetate",soluble
same,Solubility in water,Solubility; water,insoluble
same,MIC,[10],3.12 µg/mL
same,MIC,Cochliobolus miyabeanus,> 25 µg/mL
same,MIC,[11],3.12 µg/mL
same,MIC,[12],3.12 µg/mL
same,MIC,[13],50 µg/mL
same,MIC,[14],3.12 µg/mL
same,MIC,Micrococcus luteus FDA16,3.12 µg/mL
same,MIC,[15],3.12 µg/mL
same,MIC,Proteus rettgeri GN311,50 µg/mL
